pIC50: −log10 of the molar value.
Legend:
[1] = biological target: T1, p38 MAP Kinase a (Homo sapiens, UniProt Q16539); assay: p38 MAP Kinase activity, radiometric filter-binding assay (Upstate); assay type: biochemical; settings: IC50 range; read-out: Inhibitor activity versus p38 MAPKa
T1 construct: purchased Upstate (Dundee UK)
Procedure: The ability of compounds to inhibit p38 MAP a Kinase activity was measured in an assay performed by Upstate (Dundee UK). In a final reaction volume of 25 μL, p38 MAP Kinase a (5-10 mU) is incubated with 25 mM Tris pH 7.5, 0.002 mMEGTA, 0.33 mg/mL myelin basic protein, 10 mM MgAcetate and [g-33P-ATP] (specific activity approx. 500 cpm/pmol, concentration as required). The reaction is initiated by the addition of the MgATP mix. After incubation for 40 minutes at room temperature, the reaction is stopped by the addition of 5 μL of a 3% phosphoric acid solution. 10 μL of the reaction is then spotted onto a P30 filtermat and washed three times for 5 minutes in 75 mM phosphoric acid and once in methanol prior to drying and scintillation counting.
Duplicate data points are generated from a 1/3 log dilution series of a stock solution in DMSO. Nine dilutions steps are made from a top concentration of 10 μM, and a ‘no compound’ blank is included. The standard radiometric filter-binding assay is performed at an ATP concentration at, or close to, the Km. Data from scintillation counts are collected and subjected to free-fit analysis by Prism software. From the curve generated, the concentration giving 50% inhibition is determined and reported.

[2] = test system: THP-1 TNFα release; assay: LPS-stimulation of THP-1 cells, TNF-α release by ELISA; assay type: cell-based; settings: Homo sapiens, THP-1, 6 h; read-out: Inhibitor activity versus THP-1 TNFα release
Procedure: THP-1 cells were plated in 100 μl at a density of 4×10^4 cells/well in V-bottomed 96 well tissue culture treated plates and incubated at 37° C. in 5% CO2 for 16 hrs. 2 hrs after the addition of the inhibitor in 100 μl of tissue culture media, the cells were stimulated with LPS (E coli strain 005:B5, Sigma) at a final concentration of 1 μg/ml and incubated at 37° C. in 5% CO2 for 6 hrs. TNF-α levels were measured from cell-free supernatants by sandwich ELISA (R&D Systems #QTA00B).

T1 sequence (Q16539 whole entry): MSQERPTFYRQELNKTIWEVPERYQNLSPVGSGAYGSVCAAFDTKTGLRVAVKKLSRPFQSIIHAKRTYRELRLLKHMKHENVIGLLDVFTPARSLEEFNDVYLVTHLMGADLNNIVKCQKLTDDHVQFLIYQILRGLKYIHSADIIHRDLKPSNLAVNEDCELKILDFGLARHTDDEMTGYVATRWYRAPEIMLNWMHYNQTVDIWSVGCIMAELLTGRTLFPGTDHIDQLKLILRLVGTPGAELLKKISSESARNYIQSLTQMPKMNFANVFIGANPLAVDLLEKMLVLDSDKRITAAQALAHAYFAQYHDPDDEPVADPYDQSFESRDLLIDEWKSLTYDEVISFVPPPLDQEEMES

SMILES: CC(C)C[C@H](NCCc1ccc(-n2c(N)c(C(=O)c3ccc(F)cc3F)ccc2=O)cc1)C(=O)O[C@@H]1CC(C)CC[C@H]1C(C)C (stereo in doubt) [Example 13, (1R,2S,5S)-2-Isopropyl-5-methylcyclohexyl N-(2-{4-[6-amino-5-(2,4-difluorobenzoyl)-2-oxopyridin-1(2H)-yl]phenyl}ethyl)-L-leucinate]
- pIC50 [1]: < 6.00
- pIC50 [2]: > 7.00

SMILES: Nc1c(C(=O)c2ccc(F)cc2F)ccc(=O)n1-c1ccc(CCN[C@H](C(=O)OC2CCCC2)c2ccccc2)cc1 [Example 1]
- pIC50 [1]: 6.00 to 7.00
- pIC50 [2]: > 7.00

SMILES: CC(C)[C@H](NCCc1ccc(-n2c(N)c(C(=O)c3ccc(F)cc3F)ccc2=O)cc1)C(=O)OC1CCCC1 [Example 5, Cyclopentyl N-[2-(4-{6-amino-5-[(2,4-difluorophenyl)carbonyl]-2-oxopyridin-1(2H)-yl}phenyl)ethyl]-L-valinate]
- pIC50 [1]: 6.00 to 7.00
- pIC50 [2]: > 7.00

SMILES: CC(C)[C@H](NCCc1ccc(-n2c(N)c(C(=O)c3ccc(F)cc3F)ccc2=O)cc1)C(=O)OC(C)(C)C [Example 6, tert-butyl N-[2-(4-{6-amino-5-[(2,4-difluorophenyl)carbonyl]-2-oxopyridin-1(2H)-yl}phenyl)ethyl]-L-valinate]
- pIC50 [1]: 6.00 to 7.00
- pIC50 [2]: 6.00 to 7.00

SMILES: CC(C)(C)[C@H](NCCc1ccc(-n2c(N)c(C(=O)c3ccc(F)cc3F)ccc2=O)cc1)C(=O)OC1CCCC1 [Example 7, Cyclopentyl N-[2-(4-{6-amino-5-[(2,4-difluorophenyl)carbonyl]-2-oxopyridin-1(2H)-yl}phenyl)ethyl]-3-methyl-L-valinate]
- pIC50 [1]: 6.00 to 7.00
- pIC50 [2]: < 6.00

SMILES: CC(C)(C)OC(=O)[C@@H](NCCc1ccc(-n2c(N)c(C(=O)c3ccc(F)cc3F)ccc2=O)cc1)C(C)(C)C [Example 8, tert-butyl N-[2-(4-{6-amino-5-[(2,4-difluorophenyl)carbonyl]-2-oxopyridin-1(2H)-yl}phenyl)ethyl]-3-methyl-L-valinate]
- pIC50 [1]: 6.00 to 7.00
- pIC50 [2]: < 6.00

SMILES: CC(C)C[C@@H](NCCc1ccc(-n2c(N)c(C(=O)c3ccc(F)cc3F)ccc2=O)cc1)C(=O)OC1CCCC1 [Example 9, Cyclopentyl N-[2-(4-{6-amino-5-[(2,4-difluorophenyl)carbonyl]-2-oxopyridin-1(2H)-yl}phenyl)ethyl]-D-leucinate]
- pIC50 [1]: 6.00 to 7.00
- pIC50 [2]: 6.00 to 7.00

SMILES: CC(C)(C)OC[C@H](NCCc1ccc(-n2c(N)c(C(=O)c3ccc(F)cc3F)ccc2=O)cc1)C(=O)OC1CCCC1 [Example 11, Cyclopentyl N-[2-(4-{6-amino-5-[(2,4-difluorophenyl)carbonyl]-2-oxopyridin-1(2H)-yl}phenyl)ethyl]-O-tert-butyl-L-serinate]
- pIC50 [1]: 6.00 to 7.00
- pIC50 [2]: > 7.00

SMILES: CC(C)(C)OC[C@H](NCCc1ccc(-n2c(N)c(C(=O)c3ccc(F)cc3F)ccc2=O)cc1)C(=O)OC(C)(C)C [Example 12, tert-butyl N-[2-(4-{6-amino-5-[(2,4-difluorophenyl)carbonyl]-2-oxopyridin-1(2H)-yl}phenyl)ethyl]-O-tert-butyl-L-serinate]
- pIC50 [1]: 6.00 to 7.00
- pIC50 [2]: < 6.00

SMILES: C[C@@H](OC(C)(C)C)[C@H](NCCc1ccc(-n2c(N)c(C(=O)c3ccc(F)cc3F)ccc2=O)cc1)C(=O)OC1CCCC1 [Example 15, Cyclopentyl N-[2-(4-{6-amino-5-[(2,4-difluorophenyl)carbonyl]-2-oxopyridin-1(2H)-yl}phenyl)ethyl]-O-tert-butyl-L-threoninate]
- pIC50 [1]: 6.00 to 7.00
- pIC50 [2]: < 6.00

SMILES: C[C@@H](O)[C@H](NCCc1ccc(-n2c(N)c(C(=O)c3ccc(F)cc3F)ccc2=O)cc1)C(=O)OC1CCCC1 [Example 17, Cyclopentyl N-[2-(4-{6-amino-5-[(2,4-difluorophenyl)carbonyl]-2-oxopyridin-1(2H)-yl}phenyl)ethyl]-L-threoninate]
- pIC50 [1]: > 7.00
- pIC50 [2]: > 7.00

SMILES: CC[C@H](C)[C@H](NCCc1ccc(-n2c(N)c(C(=O)c3ccc(F)cc3F)ccc2=O)cc1)C(=O)OC1CCCC1 [Example 18, Cyclopentyl N-[2-(4-{6-amino-5-[(2,4-difluorophenyl)carbonyl]-2-oxopyridin-1(2H)-yl}phenyl)ethyl]-L-isoleucinate]
- pIC50 [1]: 6.00 to 7.00
- pIC50 [2]: > 7.00

SMILES: C[C@H](NCCc1ccc(-n2c(N)c(C(=O)c3ccc(F)cc3F)ccc2=O)cc1)C(=O)OC1CCCC1 [Example 20, Cyclopentyl N-[2-(4-{6-amino-5-[(2,4-difluorophenyl)carbonyl]-2-oxopyridin-1(2H)-yl}phenyl)ethyl]-L-alaninate]
- pIC50 [1]: > 7.00
- pIC50 [2]: > 7.00

SMILES: Nc1c(C(=O)c2ccc(F)cc2F)ccc(=O)n1-c1ccc(CCN[C@@H](Cc2ccccc2)C(=O)OC2CCCC2)cc1 [Example 22, Cyclopentyl N-[2-(4-{6-amino-5-[(2,4-difluorophenyl)carbonyl]-2-oxopyridin-1(2H)-yl}phenyl)ethyl]-L-phenylalaninate]
- pIC50 [1]: 6.00 to 7.00
- pIC50 [2]: > 7.00

SMILES: CC(C)C[C@H](NCCc1cc(F)c(-n2c(N)c(C(=O)c3ccc(F)cc3)ccc2=O)c(F)c1)C(=O)OC1CCCC1 [Example 24, Cyclopentyl N-(2-{4-[6-amino-5-(4-fluorobenzoyl)-2-oxopyridin-1(2H)-yl]-3,5-difluorophenyl}ethyl)-L-leucinate]
- pIC50 [1]: > 7.00
- pIC50 [2]: > 7.00

SMILES: CC(C)C[C@H](NCCc1cc(F)c(-n2c(N)c(C(=O)c3ccc(F)cc3)ccc2=O)c(F)c1)C(=O)OC(C)(C)C [Example 25, tert-butyl N-(2-{4-[6-amino-5-(4-fluorobenzoyl)-2-oxopyridin-1(2H)-yl]-3,5-difluorophenyl}ethyl)-L-leucinate]
- pIC50 [1]: 6.00 to 7.00
- pIC50 [2]: > 7.00

SMILES: CC(C)(C)OC(=O)[C@@H](NCCc1cc(F)c(-n2c(N)c(C(=O)c3ccc(F)cc3F)ccc2=O)c(F)c1)c1ccccc1 [Example 35, tert-butyl (2S)-[(2-{4-[6-amino-5-(2,4-difluorobenzoyl)-2-oxopyridin-1(2H)-yl]-3,5-difluorophenyl}ethyl)amino](phenyl)acetate]
- pIC50 [2]: > 7.00

SMILES: Nc1c(C(=O)c2ccc(F)cc2F)ccc(=O)n1-c1c(F)cc(CCN[C@H](C(=O)OC2CCCC2)c2ccc(F)cc2)cc1F [Example 47, Cyclopentyl (2S)-{[2-(4-{6-amino-5-[(2,4-difluorophenyl)carbonyl]-2-oxopyridin-1(2H)-yl}-3,5-difluorophenyl)ethyl]amino}(4-fluorophenyl)ethanoate]
- pIC50 [2]: > 7.00

SMILES: CC(C)(C)OC(=O)[C@@H](NCCc1cc(F)c(-n2c(N)c(C(=O)c3ccc(F)cc3F)ccc2=O)c(F)c1)c1ccc(F)cc1 [Example 48, tert-butyl (2S)-{[2-(4-{6-amino-5-[(2,4-difluorophenyl)carbonyl]-2-oxopyridin-1(2H)-yl}-3,5-difluorophenyl)ethyl]amino}(4-fluorophenyl)ethanoate]
- pIC50 [2]: > 7.00

SMILES: CC(C)C[C@@H](NCCc1cc(F)c(-n2c(N)c(C(=O)c3ccc(F)cc3)ccc2=O)c(F)c1)C(=O)O [Example 64, N-(2-{4-[6-amino-5-(4-fluorobenzoyl)-2-oxopyridin-1(2H)-yl]-3,5-difluorophenyl}ethyl)-D-leucine]
- pIC50 [1]: > 7.00

SMILES: CC(C)(C)OC[C@H](NCCc1cc(F)c(-n2c(N)c(C(=O)c3ccc(F)cc3)ccc2=O)c(F)c1)C(=O)O [Example 65, N-(2-{4-[6-amino-5-(4-fluorobenzoyl)-2-oxopyridin-1(2H)-yl]-3,5-difluorophenyl}ethyl)-O-tert-butyl-L-serine]
- pIC50 [1]: > 7.00

SMILES: Nc1c(C(=O)c2ccc(F)cc2F)ccc(=O)n1-c1c(F)cc(CCN[C@H](C(=O)O)c2ccccc2)cc1F [Example 66, (2S)-[(2-{4-[6-amino-5-(2,4-difluorobenzoyl)-2-oxopyridin-1(2H)-yl]-3,5-difluorophenyl}ethyl)amino](phenyl)acetic acid]
- pIC50 [1]: > 7.00

SMILES: CC(C)C[C@H](NCCc1cc(F)c(-n2c(N)c(C(=O)c3ccc(F)cc3F)ccc2=O)c(F)c1)C(=O)O [Example 67, N-(2-{4-[6-amino-5-(2,4-difluorobenzoyl)-2-oxopyridin-1(2H)-yl]-3,5-difluorophenyl}ethyl)-L-leucine]
- pIC50 [1]: > 7.00

SMILES: CC(C)C[C@@H](NCCc1cc(F)c(-n2c(N)c(C(=O)c3ccc(F)cc3F)ccc2=O)c(F)c1)C(=O)O [Example 68, N-(2-{4-[6-amino-5-(2,4-difluorobenzoyl)-2-oxopyridin-1(2H)-yl]-3,5-difluorophenyl}ethyl)-D-leucine]
- pIC50 [1]: > 7.00

SMILES: CC(C)(C)OC[C@H](NCCc1cc(F)c(-n2c(N)c(C(=O)c3ccc(F)cc3F)ccc2=O)c(F)c1)C(=O)O [Example 69, N-(2-{4-[6-amino-5-(2,4-difluorobenzoyl)-2-oxopyridin-1(2H)-yl]-3,5-difluorophenyl}ethyl)-O-tert-butyl-L-serine]
- pIC50 [1]: > 7.00

SMILES: CC(C)C[C@H](NCCc1ccc(-n2c(N)c(C(=O)c3ccc(F)cc3F)ccc2=O)s1)C(=O)O [Example 71, N-(2-{5-[6-amino-5-(2,4-difluorobenzoyl)-2-oxopyridin-1(2H)-yl]-2-thienyl}ethyl)-L-leucine]
- pIC50 [1]: 6.00 to 7.00
